The subject of data set [1] is MDA-MB-231. Put plainly: MTS cell viability assay, 48 h. It counts as cell-based, human. The settings on record: Homo sapiens; MDA-MB-231, 48 h, MTS; concentration decreasing cell viability by 50% relative to untreated control; read-out: CC50. The procedure: […] […] This compound carries a primary amino group at the sn-3 position of the glycerolipid and L-rhamno sugar at the sn-2 position via an α-rhamnosidic linkage.
(§1) The cell lines were cultured from frozen stocks originally obtained from ATCC (Manassas, VA, USA). MDA-MB-231, JIMT-1, DU145, MDA-MB-468, Hs578t and MDA-MB-453 were grown in DMEM medium supplemented with 10% FBS. BT-474 cells were grown in DMEM/F12 medium supplemented with 10% FBS. MiaPaCa2 was cultured in DMEM supplemented with 10% FBS and 2.5% horse serum. All the media contained penicillin/streptomycin. U-251 and U-87 in Eagle MEM supplemented by 10% FBS, 1% Non-essential amino acids, 1 mM sodium pyruvate and 2 mM glutamine. BT-549 was cultured in RPMI 1640 medium supplemented with 10% FBS.
The effects of the GAELs on the viability of the epithelial cancer cell lines were determined as previously described. Briefly, equal numbers of the cells were dispersed into 96-well plates. […] MTS reagent [3-(4,5-dimethylthiazol-2-yl)-5-(3-carboxymethoxyphenyl)-2-(4-sulfophenyl)-2H-tetrazolium, inner salt; Promega, Madison, WI, USA] (20% v/v) was subsequently added and the plates were incubated for 1–4 h in a CO2 incubator followed by measurement of the medium at OD490 with a plate reader (Molecular Devices).
(Formazan colour is commonly taken as a measure of viable cells.)

The test system of data set [2] is MDA-MB-453. In words: MTS cell viability assay, 48 h. It is filed as cell-based, human. The procedure: (§2) Concentrations of compound 3 between 6–15 µM were sufficient to kill all the triple negative cell lines with the exception of MDA-MB-453 where viability was inhibited by 60% at the highest concentration tested. 30 µM of 3 was required for complete loss of viability of the hormone sensitive breast cancer BT474 cell line.
as §1
(§3) The effects of the GAELs on the viability of the epithelial cancer cell lines were determined as previously described. Briefly, equal numbers of the cells were dispersed into 96-well plates. After 24 h, the cells were incubated with the compounds (0–30 µM) for 48 h. […] (20% v/v) was subsequently added and the plates were incubated for 1–4 h in a CO2 incubator followed by measurement of the medium at OD490 with a plate reader (Molecular Devices). […]

The test system of data set [3] is JIMT-1. Put plainly: MTS cell viability assay, 48 h. It counts as cell-based, human. The note with it: Homo sapiens; JIMT-1, 48 h, MTS; read-out: CC50. As for the experimental part: (§4) The cells were incubated with increasing concentrations of the compounds (0–30 µM) for 48 h followed by assessment of cell viability using the MTS assay. […] This compound carries a primary amino group at the sn-3 position of the glycerolipid and L-rhamno sugar at the sn-2 position via an α-rhamnosidic linkage.
as §1
(§5) The effects of the GAELs on the viability of the epithelial cancer cell lines were determined as previously described. Briefly, equal numbers of the cells were dispersed into 96-well plates. After 24 h, the cells were incubated with the compounds (0–30 µM) for 48 h. MTS reagent [3-(4,5-dimethylthiazol-2-yl)-5-(3-carboxymethoxyphenyl)-2-(4-sulfophenyl)-2H-tetrazolium, inner salt; Promega, Madison, WI, USA] (20% v/v) was subsequently added and the plates were incubated for 1–4 h in a CO2 incubator followed by measurement of the medium at OD490 with a plate reader (Molecular Devices). Wells with media but no cells were treated in similar fashion and the values utilized as blank.

For data set [4], the system named is human epithelial cancer cell lines: breast (MDA-MB-231, JIMT-1), pancreas (MiaPaCa2) and prostate (DU-145, PC-3). Put plainly: MTS cell viability assay, 48 h, across the panel of cell lines. It counts as cell-based. The note with it: 48 h, 48 h, MTS; for CC50: range or bound over all cell lines, read-out: CC50 values across the cell lines. The procedure:
as §4, §1, §5

Data set [5] is described as follows: Hemolytic assay. It counts as cell-based. The note with it: sheep, ovine erythrocytes (washed suspension), pH 7.4, relative to 1% ammonium hydroxide = 100%, read-out: Highest hemolysis observed. As for the experimental part: To further evaluate the membrane lytic properties of compound 3, we investigated its capacity to lyse ovine erythrocytes. The highest hemolysis observed with compound 3 was about 6.6% at 100 µM compared to the 1% ammonium hydroxide positive control (Figure 6).
The hemolytic activity of the GAEL analogs was evaluated using ovine erythrocyte. Sheep whole blood was collected from a slaughter house into a vessel containing disodium EDTA ([…]) in a buffered saline (10 mM Tris, 150 mM NaCl, pH 7.4). The erythrocytes were prepared and washed with buffered saline as previously reported. For the assay, the erythrocyte suspension, varying amounts of the GAEL drugs or vehicle were pipetted into 1.5 mL microcentrifuge tubes to give a final volume of 1500 µL and cell density of 2.5 × 10^8 cells/mL. The suspensions were incubated with gentle shaking in Eppendorf thermomixer for 30 min. […] 200 µL of the supernatant was dissolved in 1800 µL of 0.5% NH4OH and the optical density (OD) was recorded using 1 mL cuvette at 540 nm in a spectrophotometer. […] The % hemolysis was calculated using the optical density (OD) values as shown below in Equation (1):% hemolysis = (X − 0%)/(100% − 0%)(1) where X is the OD values of the drug(s) at varying concentration.
Figure 6 Hemolytic properties of GAEL 3 using freshly isolated ovine erythrocytes. […] The values were determined as % of control.

Data set [6] relates to BT549, MDA-MB-453, MDA-MB-468, and Hs578t (triple negative breast cancer lines). In words: MTS cell viability assay, 48 h, triple negative breast cancer lines. It counts as cell-based, human. The note with it: with the exception of MDA-MB-453. The procedure:
as §2, §1, §3

The test system of data set [7] is DU-145. The note with it: DU-145, absence or presence of 40 µM QVD, 48 h. As for the experimental part: (§6) One of the hallmark features of cytotoxic GAELs is their ability to kill cancer cells via an apoptosis-independent mechanism. We evaluated whether the mechanism of action of 3 was similar to other GAELs.
(§7) Equal numbers of JIMT-1, or DU145 cells were dispersed into 96-well plates, and after 4 h the cells were treated with pan-caspase inhibitor QVD-OPh (40 µM). After 20 h, the cells were incubated with the varying concentration of the compounds ([…]) for 48 h. At the end of the incubation, the MTS assay was used to assess cell viability as described above.
(§8) DU-145 or JIMT-1 cell lines were treated with increasing concentrations of 3 or Adriamycin in the presence or absence of 40 µM QVD. Four hours after plating, cells were treated with QVD. After 20 h, the cells were incubated with 0–15 µM 3 or 0–4 µM Adriamycin for 48 h. Cell viability relative to vehicle control was measured by MTS assay.

The test system of data set [8] is JIMT-1. The settings on record: JIMT-1, absence or presence of 40 µM QVD, 48 h. As for the experimental part:
as §6, §7, §8

The structures appear in SMILES notation. Where two headings read alike, the source gives them in different places.

Turning to `CCCCCCCCCCCCCCCCOCC(CN)OC1OC(C)C(O)C(O)C1O` [Compound 3, 3-Amino-1-O-hexadecyloxy-2R-(O–α-L-rhamnopyranosyl)-sn-glycerol], the CC50 in data set [1] was 4.8 µM; in data set [2] (Homo sapiens, MDA-MB-453), 13.8 µM; in data set [3], 5.5 µM; in data set [4] (Homo sapiens), 4.8 to 14 µM; in data set [4] it was 4.8 to 11 µM. In data set [2] (MDA-MB-453, at the highest concentration tested), this compound yielded a Viability inhibited of 60%. For the same compound, the “Concentration range giving greater than 90% loss of cell viability” value in data set [4] (all the cell lines) fell in the range of 7.5 to 15.0 µM. In addition, the hemolysis at 30 min, 100 µM in data set [5] was around 6.6%. In addition, in data set [6], the “Concentrations sufficient to kill all the triple negative cell lines” value was 6 to 15 µM. For the same compound, the “Effect of QVD on cytotoxicity” value in data set [7] and in data set [8] was “no statistically significant differences” each time.

Usually CC50 stands for the concentration at which the toxic effect on the cells reaches its halfway point.

The values are drawn from PMC7037447, “Syntheses of L-Rhamnose-Linked Amino Glycerolipids and Their Cytotoxic Activities against Human Cancer Cells” (Molecules, 2020).
